{
  "source": "patent US4868193A",
  "about": "“Styryl tetrazoles and anti-allergic use thereof” (Rorer Pharmaceutical Corporation, priority 1986, dated 1989)",
  "key": {"[1]": {"tested_on": "LTC4-induced contraction of guinea pig peripheral lung strips", "assay": "In vitro assay to identify leukotriene antagonist compounds (guinea pig lung strips), vs LTC4", "format": "cell-based", "settings": "Cavia porcellus, 50% reduction of muscle response, read-out: In Vitro I50", "procedure": "(§1) In Vitro Assay to Identify Leukotriene Antagonist Compounds […] Peripheral strips of guinea pig lungs are prepared and hung in tissue baths according to the procedure described by Drazen et al. Male guinea pigs (Charles River, 250-400 g) are sacrificed by cervical dislocation and their lungs rapidly removed. The individual lobes are dissected free and rinsed in Assay Buffer which is continuously aerated with 95% oxygen-5% carbon dioxide. After the lobes are extensively rinsed, a strip of lung tissue, approximately 2 mm thick and 5-8 cm long, is cut off the sharpest and most peripheral portion of each lobe. The peripheral edge is cut almost completely around the outside of the lobe so that a U-shaped strip is obtained. These strips are rinsed in Assay Buffer and then connected with surgical silk thread to the support rods from the tissue baths. The rods are adjusted in the baths and the strips connected to the pressure transducers. The tissue baths are aerated with 95% oxygen-5% carbon dioxide and maintained at 37°. The tension on these strips is adjusted to 500 mg with \"re-zeros\" the pen deflection on the previously calibrated polygraph. Tissues are initially washed with fresh buffer every 5-10 minutes for about 30 minutes. Thereafter, tissues were washed with fresh assay buffer at least every 20 minutes. Normalizing Muscle Contractions and Testing of Compounds 1. After the tissues have been repeatedly washed and allowed to equilibrate in the tissue bath, they are challenged with 1μM histamine. [Usually 10 μl of a 1 mM stock solution are added to the baths.] After maximum concentrations have been obtained, then tissues are washed and allowed to relax back to baseline tension. This histamine challenge procedure is repeated at least 1 or 2 more times to obtain a repeatable control response. […] Leukotriene (usually 0.4 units/ml) is added after the desired preincubation time and the muscle response is recorded. […] From this curve the concentration responding to the 50% reduction of the muscle concentration is calculated as the ^I 50 value. […]"}, "[2]": {"tested_on": "LTD4 (leukotriene D4)-induced contraction of guinea pig peripheral lung strips", "assay": "In vitro assay to identify leukotriene antagonist compounds (guinea pig lung strips), vs LTD4", "format": "cell-based", "settings": "50% reduction of muscle response, read-out: In Vitro I50", "procedure": "as §1"}, "[3]": {"tested_on": "LTD4 (leukotriene D4)-induced cutaneous wheal formation", "assay": "Leukotriene D4-induced wheal formation in the guinea pig", "parameters": "species or system guinea pig (male Hartley)", "settings": "Cavia porcellus, po, 1 h, p.o., 0.1 μg LTD4 intradermally, given one hour before Evans blue dye, read-out: In Vivo LTD4 Wheal, ED50", "procedure": "Leukotriene D4 -Induced Wheal formation in the Guinea Pig Leukotriene D4 (LTD4) increases vascular permeability in guinea pig skin. LTD4 antagonists are tested for oral activity in a model of LTD4 -induced cutaneous wheal formation in the guinea pig. Male Hartley guinea pigs are given either vehicle (polyethylene glycol 400) or test compound by gauge one hour before intravenous injection of 1% Evans blue dye. Immediately after dye injection, 0.1 μg of LTD4 (in a volume of 0.1 ml) is injected intradermally at two separate dorsal sites. Thirty minutes later, the animals are sacrificed by carbon dioxide asphyxiation, the dorsal skins reflected, and glued wheal areas measured. Mean values±standard error for wheal areas in vehicle- and drug-treated groups are determined. Inhibition of wheal formation is calculated by comparison of drug-treated and control groups."}},
  "note": "Counter-ions that a name gives are not always drawn. Like-named read-outs stand apart in the source and are kept apart here.",
  "data": [
    {"smiles": "N#CC=Cc1cccc(OCc2ccc3ccccc3n2)c1", "note": "[Example 1B, 3-(Quinolin-2-yl-methoxy)-cinnamylnitrile]", "values": [
      {"measurement": "IC50", "setting": "[1]", "result": 1200, "unit": "nM"},
      {"measurement": "IC50", "setting": "[2]; Cavia porcellus", "result": 650, "unit": "nM"}
    ]},
    {"smiles": "C(=Cc1nnn[nH]1)c1cccc(OCc2ccc3ccccc3n2)c1.Cl", "note": "[Example 1C, 5-[3-(Quinolin-2-yl-methoxy)styryl]-tetrazole hydrochloride]", "values": [
      {"measurement": "IC50", "setting": "[1]", "result": 150, "unit": "nM"},
      {"measurement": "IC50", "setting": "[2]; hydrochloride", "result": 80, "unit": "nM"},
      {"measurement": "IC50", "setting": "[2]; Cavia porcellus", "result": 60, "unit": "nM"},
      {"measurement": "ED50", "setting": "[3]", "result": 22, "unit": "mg/kg"}
    ]},
    {"smiles": "C(=Cc1nnn[nH]1)c1ccc(OCc2ccc3ccccc3n2)cc1", "note": "[Example 2C, 5-[4-(Quinolin-2-yl-methoxy)styryl]-tetrazole hydrochloride]", "values": [
      {"measurement": "IC50", "setting": "[1]", "result": 500, "unit": "nM"}
    ]}
  ]
}
